The values that follow come from PubChem BioAssay (NCI).

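A five-concentration, 48-hour dose response in 96-well plates underlies each endpoint, interpolated linearly between surrounding concentrations. Abbreviation: GI50, concentration required for 50% inhibition of growth. At the TGI there is no net growth.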 A value given as a limit tells only on which side of the number the result lay.

Among the test systems are EKVX NSCLC; HOP-62 NSCLC; DLD-1 colon; SNB-78 CNS; UACC-257 melanoma; NCI-H23 lung; MOLT-4 leukemia; NCI-H460 lung; NCI/ADR-RES ovarian; PC-3 prostate.
Common to all, as to assay: DTP human tumour cell line panel, 48 h

Usually GI50 stands for the concentration giving 50% growth inhibition. The TGI is the concentration at which net growth stops. Lower therefore signals more potent growth arrest.

Regarding `CCC(C(=O)[O-])C(=O)[O-].CCC(C(=O)[O-])C(=O)[O-].N.N.NCCCCCCN.[Pt+4].[Pt+4]`, the GI50 is 20.7 µM with EKVX NSCLC; 20.4 µM with HOP-62 NSCLC; 3.79 µM with DLD-1 colon; 10.7 µM with SNB-78 CNS; 6.14 µM in the assay on UACC-257 melanoma; 9.84 µM in the assay with NCI-H23 lung. Besides, the GI50 in the assay with MOLT-4 leukemia is 1.18 µM; in the assay on NCI-H460 lung it was 7.99 µM. The TGI with EKVX NSCLC was 33.3 µM; in the assay on HOP-62 NSCLC, 50 µM; in the assay with DLD-1 colon, 13.9 µM; in the assay on SNB-78 CNS it was 29 µM; in the assay with UACC-257 melanoma it was 14 µM; in the assay with NCI-H23 lung, 24.5 µM. The figures for the TGI in the assay on MOLT-4 leukemia and in the assay on NCI-H460 lung were 2.94 µM and 18.7 µM, respectively.
On to `Cc1ccc(C)c(NC(=O)CCc2nc(=S)[nH][nH]2)c1`, for which the TGI in the assay with EKVX NSCLC, in the assay on HOP-62 NSCLC, in the assay on DLD-1 colon, with SNB-78 CNS, in the assay on UACC-257 melanoma and in the assay with NCI-H23 lung was over 100 µM each time. In addition, the TGI in the assay with MOLT-4 leukemia and in the assay on NCI-H460 lung was over 100 µM each time.
Regarding `O=C(O)Cn1c(=O)[nH]c(=O)c2c1ncn2Cc1ccccc1`, the TGI in the assay on EKVX NSCLC, in the assay with HOP-62 NSCLC, in the assay with DLD-1 colon, with SNB-78 CNS, in the assay with NCI-H23 lung and with MOLT-4 leukemia was over 100 µM throughout. The TGI with NCI-H460 lung was over 100 µM.
With `CC(C)(C)C(=O)O[C@@H]1COC2C(O)COC21` (stereo partly drawn), the TGI in the assay with HOP-62 NSCLC is over 100 µM; with DLD-1 colon, over 100 µM; in the assay on SNB-78 CNS, over 100 µM; in the assay on UACC-257 melanoma, over 100 µM; in the assay with NCI-H23 lung, over 100 µM; in the assay with MOLT-4 leukemia it was 49 µM. Moreover, the TGI in the assay on NCI-H460 lung is over 100 µM.
In the case of `CN(C)c1ccc(/C=N\N2C(=O)c3ccccc3C2=O)cc1`, the TGI in the assay on EKVX NSCLC, in the assay with HOP-62 NSCLC, with DLD-1 colon, in the assay with SNB-78 CNS, in the assay with UACC-257 melanoma and in the assay with NCI-H23 lung was over 100 µM each time. Moreover, the TGI in the assay on MOLT-4 leukemia and with NCI-H460 lung was over 100 µM throughout.
`N#CC1(C=O)c2ccccc2C=CN1C(=O)c1ccccc1` (stereo not drawn): the TGI was over 100 µM in the assay on EKVX NSCLC; over 100 µM in the assay with SNB-78 CNS; over 100 µM in the assay on UACC-257 melanoma; over 100 µM with NCI-H23 lung; 44.9 µM in the assay on MOLT-4 leukemia; over 100 µM with NCI-H460 lung.
As for `COCCOCC(=O)N(CCn1ccc(NC(c2ccccc2)(c2ccccc2)c2ccccc2)nc1=O)CCn1cnc2nc(N)[nH]c(=O)c21`, the TGI in the assay with EKVX NSCLC, with HOP-62 NSCLC, in the assay with DLD-1 colon, in the assay on SNB-78 CNS, with UACC-257 melanoma and in the assay on NCI-H23 lung was over 100 µM in each case. For the same compound, the TGI with MOLT-4 leukemia and in the assay on NCI-H460 lung was over 100 µM throughout.
As to `Cc1nc(Nc2ccc([N+](=O)[O-])cc2)sc1C(/C=C/c1ccc(N(C)C)cc1)=N/NC(=O)c1ccccc1`, the TGI with EKVX NSCLC, in the assay on HOP-62 NSCLC, with DLD-1 colon, in the assay with SNB-78 CNS, with UACC-257 melanoma and in the assay with NCI-H23 lung was over 100 µM in each case. Moreover, the TGI in the assay on MOLT-4 leukemia and in the assay with NCI-H460 lung was over 100 µM each time.
As for `O=C1C2c3[nH]c4ccccc4c3[C@@H]3CCCCC3C2C(=O)N1c1ccccc1` (stereo partly drawn), the TGI in the assay with EKVX NSCLC came to 37.5 µM; with DLD-1 colon, 92.4 µM; in the assay with SNB-78 CNS, 72 µM; in the assay on NCI-H23 lung it was 39.2 µM; with MOLT-4 leukemia, 62.9 µM; with NCI-H460 lung it was 31.9 µM.
For `c1ccc(COCC2OC3c4ccccc4COC3C2OCc2ccccc2)cc1` (stereo not drawn), the TGI with EKVX NSCLC, with DLD-1 colon, with SNB-78 CNS, in the assay on UACC-257 melanoma, in the assay with NCI-H23 lung and in the assay with MOLT-4 leukemia was over 100 µM throughout. This compound came in with a TGI in the assay on NCI-H460 lung of over 100 µM.
As to `COC12CC(=O)C(C(C)=O)=C(O)C1(C)c1c(OC(C)=O)c(C)c(O)c(C(C)=O)c1O2` (stereo not drawn), the TGI in the assay with EKVX NSCLC was 93.6 µM; in the assay with HOP-62 NSCLC, 95.8 µM; in the assay on SNB-78 CNS it was over 100 µM; in the assay on UACC-257 melanoma it was 91.4 µM; in the assay on NCI-H23 lung, 31.3 µM; in the assay on MOLT-4 leukemia, over 100 µM. In the assay on NCI-H460 lung, this compound gave a TGI of over 100 µM.
For `COc1cnc2c(c1)C(=O)c1c-2n(CCCN2CCCC2)c(=O)c2cc(F)ccc12`, the GI50 was 0.407 µM with EKVX NSCLC; 0.212 µM in the assay on HOP-62 NSCLC; 0.467 µM with NCI/ADR-RES ovarian; 0.42 µM in the assay on PC-3 prostate; 0.396 µM in the assay on UACC-257 melanoma; 0.331 µM in the assay on NCI-H23 lung. The GI50 is 0.0591 µM in the assay on MOLT-4 leukemia and 0.0603 µM in the assay with NCI-H460 lung. Further, the TGI in the assay on EKVX NSCLC was found to be 4.24 µM; in the assay on HOP-62 NSCLC it was 0.687 µM; in the assay on NCI/ADR-RES ovarian it was 3.19 µM; in the assay on PC-3 prostate it was 12.8 µM; in the assay with UACC-257 melanoma, 2.2 µM; in the assay on NCI-H23 lung, 2.4 µM. Also, the TGI is 0.414 µM in the assay with MOLT-4 leukemia and 0.3 µM in the assay on NCI-H460 lung.
As for `CCCCCCCCCCCCN(O)C(=O)c1ccccc1`, the TGI in the assay on EKVX NSCLC was 84.2 µM; in the assay on DLD-1 colon, over 100 µM; with UACC-257 melanoma it was 49.1 µM; in the assay on NCI-H23 lung, 52.2 µM; in the assay on MOLT-4 leukemia it was over 100 µM.
For the compound `O=C(CCCCCCSc1nc(-c2ccc(Cl)cc2)cc(-c2ccc(Cl)cc2)n1)NO`, the GI50 is 2.6 µM in the assay with EKVX NSCLC; 1.52 µM in the assay with HOP-62 NSCLC; 0.998 µM in the assay on NCI/ADR-RES ovarian; 1.54 µM in the assay with PC-3 prostate; 2.15 µM in the assay with UACC-257 melanoma; 1.32 µM in the assay with NCI-H23 lung. Moreover, the GI50 in the assay on MOLT-4 leukemia is 1.5 µM; with NCI-H460 lung, 1.41 µM. In addition, the TGI in the assay with EKVX NSCLC is 39.6 µM; in the assay on HOP-62 NSCLC, 6.47 µM; with NCI/ADR-RES ovarian it was 2.97 µM; in the assay with PC-3 prostate it was 16.3 µM; with UACC-257 melanoma it was over 50 µM; in the assay with NCI-H23 lung it was 4.33 µM. Also, the TGI with MOLT-4 leukemia was over 50 µM; in the assay on NCI-H460 lung, 5.93 µM.
Turning to `CCc1nc(N)nc(N)c1-c1ccc(NCCc2ccccc2)c([N+](=O)[O-])c1`, the TGI is 54 µM in the assay with EKVX NSCLC; over 46.9 µM with HOP-62 NSCLC; 53.7 µM in the assay on NCI/ADR-RES ovarian; over 71.6 µM in the assay on PC-3 prostate; 26.2 µM in the assay with UACC-257 melanoma; over 54.1 µM with NCI-H23 lung. In addition, the TGI with MOLT-4 leukemia was 33.3 µM; in the assay on NCI-H460 lung, over 53.9 µM.
